Legend:
[1] = tested on: human tumor cell lines, including prostate, endometrial, soft tissue and bone sarcoma, leukemia, lymphoma and glioblastoma cell lines; experiment: in vitro proliferation of human tumor cell lines; type: cell-based
[2] = tested on: human tumor cell lines, including prostate, endometrial, soft tissue and bone sarcoma, leukemia, lymphoma and glioblastoma cell lines; experiment: in vivo xenograft models of human tumor cell lines
[3] = study of the degradation of AP23573; type: physicochemical

CO[C@H]1C[C@@H]2CC[C@@H](C)[C@@](O)(O2)C(=O)C(=O)N2CCCC[C@H]2C(=O)O[C@H]([C@H](C)C[C@@H]2CC[C@@H](OP(C)(C)=O)[C@H](OC)C2)CC(=O)[C@H](C)/C=C(\C)[C@@H](O)[C@@H](OC)C(=O)[C@H](C)C[C@H](C)/C=C/C=C/C=C/1C [AP23573, 43-dimethylphosphinate ester of rapamycin]
inhibition of proliferation of human tumor cell lines [1]: potently inhibited proliferation | inhibition of proliferation of human tumor cell lines [2]: potently inhibited proliferation | aqueous degradation ([3]; aqueous, forms ring opened seco-AP23573): undergoes aqueous degradation via cleavage of a lactone bond | oxidative degradation pathway ([3]; oxidation): oxidation of the compound's triene moiety
